This is an account of results in patent US8394398B2 (Abbott Laboratories, priority 1997, dated 2013).

The nature of data set [1]: Phase 1 single escalating intravenous dose study, safety and pharmacokinetics. It is filed as in vivo, human. Conditions: for C5 / concentration at 5 min: concentration at 5 minutes; for concentration at 5 min: male, human, whole blood, read-out: C5. How it is done:
In the present, first-time-in-man study, the safety and pharmacokinetics of zotarolimus were investigated following intravenous bolus administration of zotarolimus over a 100 to 900 μg dose range. The intravenous bolus dose administration would mimic the most rapid unexpected release of zotarolimus from drug-coated stents in vivo.
This was a Phase 1, single escalating dose, double-blind, randomized, placebo-controlled, single-center study. Sixty (60) adult healthy males were divided into 5 IV dose groups of 100, 300, 500, 700, and 900 μg.
Subjects were randomly assigned to receive a single intravenous dose of zotarolimus or a matching intravenous placebo under fasting conditions, as shown in the dosing scheme shown in Table 9.
Higher doses were administered after evaluating the safety data from the preceding lower dose groups. The treatment groups were separated by at least 7 days. For safety reasons, each treatment group was divided into two cohorts of six subjects and the doses of the two cohorts of a group were separated by at least 1 day.
Doses were administered as IV bolus over 3 minutes, with 8 subjects. Four subjects received zotarolimus and 4 subjects received placebo in each dose group. Blood was sampled for 168 hours and concentrations of zotarolimus measured using LC-MS/MS with a LOQ of 0.20 ng/mL
Seven (7)-mL blood samples were collected by venipuncture into evacuated collection tubes including edetic acid (EDTA) prior to dosing (0 hour) and at 0.083 (5 min), 0.25, 0.5, 1, 2, 4, 8, 12, 16, 24, 36, 48, 72, 96, 120, 144, and 168 hours after dosing on Study Day 1.
Blood concentrations of zotarolimus were determined using a validated liquid/liquid extraction HPLC tandem mass spectrometric method LC-MS/MS). […] AU calibration curves had coefficient of determination (r^2) values greater than or equal to 0.9923.
Safety was evaluated based on adverse event, physical examination, vital signs, ECG, injection site and laboratory tests assessments.
Pharmacokinetic parameter values of zotarolimus were estimated using noncompartmental methods.
To investigate the questions of dose proportionality and linear pharmacokinetics, an analysis of covariance (ANCOVA) was performed. Subjects were classified by dose level, and body weight was a covariate. The variables analyzed included β, Vdβ, dose-normalized C5, and logarithms of dose-normalized AUC0-last and dose-normalized AUC0-inf. The primary test of the hypothesis of invariance with dose was a test on dose-level effects with good power for a monotonic function of dose. In addition, the highest and lowest dose levels were compared within the framework of the ANCOVA.

Another data set deals with human monocytes. The data set can be described thus: cytokine production by LPS-stimulated human monocytes (ELISA). It counts as cell-based. The protocol: Experiments were performed to determine the effects of zotarolimus, sirolimus and dexamethasone on the production of TNFα, IL-6 and MCP-1 by activated human monocytes In addition to monocytes and macrophages two other key cell types are involved in the etiology of restenosis, arterial smooth muscle and endothelial cells. These cells are activated and produce cytokines in response to TNFα. […] The activation of cytokine production by human coronary artery smooth muscle and endothelial cells following TNFα treatment was determined by measuring interleukine-8 (IL-8), MCP-1 and IL-6 production. As shown by the results of the experiments described below, the ability of these compounds to inhibit the production of cytokines supports their use in combination as anti-restenotic agents since these cytokines play a role in the development of restenosis. […] After 24 hours, the supernatants were carefully collected and TNFα, IL-6 and MCP-1 levels determined by ELISA. Primary cultures of human coronary artery endothelial and smooth muscle cells were obtained from Cambrex and maintained as described by the vendor. […] After 24 hours the supernatants were removed and replaced with media containing TNFα (5 ng/ml) in the presence and absence of various concentrations of zotarolimus, dexamethasone or sirolimus. The cells were incubated for 24 hours and the supernatants carefully removed and frozen until measurement. Cytokine levels were measured in the supernatants by sandwich ELISA.
For orientation: In an ELISA, binding on a coated surface is turned into a signal by an enzyme label.

Where [2] appears, read: 100 μg single IV bolus, healthy males, blood.
[3] abbreviates: 300 μg single IV bolus, healthy males, blood.
Where [4] appears, read: 500 μg single IV bolus, healthy males, blood.
Where [5] appears, read: 700 μg single IV bolus, healthy males, blood.
[6] abbreviates: 900 μg single IV bolus, healthy males, blood.

Each structure is given as a SMILES string. Like-named read-outs stand apart in the source and are kept apart here.

`CO[C@H]1C[C@@H]2CC[C@@H](C)[C@@](O)(O2)C(=O)C(=O)N2CCCC[C@H]2C(=O)O[C@H]([C@H](C)C[C@@H]2CC[C@H](n3cnnn3)[C@H](OC)C2)CC(=O)[C@H](C)/C=C(\C)[C@@H](O)[C@@H](OC)C(=O)[C@H](C)C[C@H](C)/C=C/C=C/C=C/1C` [zotarolimus]: in data set [1] (setting [2]), the C5 is 13.48 ng/mL and the concentration at 5 min amounted to 13.5 ± 2.87 ng/mL. Moreover, in data set [1] (setting [3]), the C5 is given as 36.71 ng/mL and the concentration at 5 min is 36.7 ± 9.82 ng/mL. Besides, in data set [1] (setting [4]), the C5/Dose was found to be 0.11 ± 0.0005 ng/mL/µg and the “β (elimination rate constant)” value came to 0.017 ± 0.003 h⁻¹. Also, in data set [1] (setting [5]), the CL turned out to be 3.18 L/h, the C5 is 88.73 ng/mL and the concentration at 5 min was 88.7 ± 5 ng/mL. Besides, in data set [1] (setting [6]), the C5 is 110.78 ng/mL and the concentration at 5 min was determined as 111 ± 15.9 ng/mL. For the same compound, the tolerability result in data set [1] (single IV doses of 100 to 900 μg, healthy males) was “well tolerated at all doses”. In data set [1] (single IV doses of 100 to 900 μg, reported by two or more subjects in any one treatment group), the “most common treatment-emergent adverse events” value is “injection site reaction and pain”. For the same compound, the “dose proportionality of pharmacokinetics” value in data set [1] (with respect to C5 and AUC0-inf, IV) is “dose-proportional over the 100-900 μg dose range”. In addition, in the data set on human monocytes (FIG. 10), the “MCP-1 production by human monocytes in vitro” value was “dose-dependently inhibit MCP-1 production”. The “production of TNFα and IL-6 by human monocytes” value in the data set on human monocytes (FIGS. 10 and 11) is recorded as “not demonstrated”. Further, in the data set on human monocytes (Monocytes, 24 hours), the “Maximal Inhibitory Activity, IL-6” value is “− (− indicates maximal inhibitory activity less than 50% of control)”; the “Maximal Inhibitory Activity, MCP-1” value is reported as “+++ (+++ indicates maximal inhibitory activity of 75-100% of control)”; the “Maximal Inhibitory Activity, TNF” value is recorded as “− (− indicates maximal inhibitory activity less than 50% of control)”.
